The source of these data is patent publication US5876694A, “Azavesamicols” (priority 1997, dated 1999).

For experiment [1], the target named is T1, vesamicol receptor (Tetronarce californica, UniProt P81721).
T1 sequence (P81721 1-515): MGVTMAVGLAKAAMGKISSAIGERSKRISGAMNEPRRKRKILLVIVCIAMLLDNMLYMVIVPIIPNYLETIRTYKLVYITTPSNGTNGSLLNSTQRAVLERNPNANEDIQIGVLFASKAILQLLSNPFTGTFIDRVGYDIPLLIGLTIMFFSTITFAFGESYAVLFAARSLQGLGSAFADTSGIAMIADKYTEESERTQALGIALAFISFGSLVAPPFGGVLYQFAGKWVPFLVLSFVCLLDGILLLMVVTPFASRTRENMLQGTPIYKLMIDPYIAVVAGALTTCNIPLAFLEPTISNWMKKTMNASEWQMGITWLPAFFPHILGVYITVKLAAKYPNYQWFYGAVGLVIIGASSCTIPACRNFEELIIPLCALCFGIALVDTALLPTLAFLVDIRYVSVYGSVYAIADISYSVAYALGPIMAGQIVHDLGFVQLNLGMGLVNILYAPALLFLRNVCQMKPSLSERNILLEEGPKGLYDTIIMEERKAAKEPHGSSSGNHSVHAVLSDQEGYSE
As to the kind of experiment: Inhibition of [^3 H]vesamicol binding to highly purified synaptic vesicles (electric organ of Torpedo Californica). The conditions noted are these: for in vitro potency (in words): relative to comparator compounds. An excerpt:
vesicles harvested from the electric organ of Torpedo Californica.
^b Data obtained from Bahr and Parsons (1986).
IC50 values are quoted ±1 standard deviation.
^d Obtained from Efange et al. (1991).

The subject of experiment [2] is cholinergic neurotransmission. Nature of the experiment: In vivo anticholinergic activity in mice (spasms, respiratory distress, paralysis, death). On the set-up: key to Pharmacological activity in mice: LD: lethal dose; NR: no visible pharmacological reaction; +: visible anticholinergic effects; S: sluggishness and reduced locomotor activity. The method, then:
in vivo anticholinergic activity was evaluated in mice. Blockade of cholinergic neurotransmission (or anticholinergic activity) was manifested in a rapidly developing respiratory distress, spasms and paralysis. At lethal doses these symptoms were followed by death within 10 min. As evident in Table 3, several of the compounds tested were lethal at doses as low as 5 and 10 umol/Kg. […] All of the potent compounds belong to the 1,4 series, an observation consistent with the in vitro data discussed above.
^a Group of mice (n = 2) received selected doses of the compounds by
activity: spasms, respiratory distress, paralysis. At lethal doses, death
generally occurred within 10 min following the injection.

Experiment [3] deals with vesamicol receptor. The note with it: cited from earlier work.
The mark [4] stands for this setting: .30 umol/Kg (so in the source) ip.
[5] abbreviates: .60 umol/Kg (so in the source) ip.

SMILES strings stand for the structures.

Consider `O[C@H]1CCN(Cc2ccc(F)cc2)C[C@@H]1N1CCC(c2ccccc2)CC1` (relative stereo) [Compound 12d], for which the “in vitro potency (in words)” value on vesamicol receptor [1] is given as “enhances potency”. In experiment [2] (10 umol/Kg ip), the “Pharmacological activity in mice” value is listed as “LD”. Take `O=C(c1ccccc1)N1CC[C@H](O)[C@@H](N2CCC(c3ccccc3)CC2)C1` [(+)-10a]: in experiment [2] (2.5 umol/Kg), the “anticholinergic effects in mice” value is recorded as “elicited anticholinergic effects”. In addition, the “Pharmacological activity in mice” value is “+” in experiment [2] (2.5 umol/Kg ip), “LD” in experiment [2] (5.0 umol/Kg ip) and “LD” in experiment [2] (setting [4]). Turning to `O[C@H]1CCN(Cc2ccccc2Br)C[C@@H]1N1CCC(c2ccccc2)CC1` (relative stereo) [Compound 12e], in experiment [2] (10 umol/Kg ip), the “Pharmacological activity in mice” value is recorded as “LD”. On to `O[C@H]1CN(Cc2ccccc2)CC[C@@H]1N1CCC(c2ccccc2)CC1` (relative stereo) [Compound 11a], for which the “Pharmacological activity in mice” value in experiment [2] (10 umol/Kg ip) is listed as “NR”; in experiment [2] (20 umol/Kg ip), “+”.

In the case of `O[C@H]1CN(Cc2cccc(Br)c2)CC[C@@H]1N1CCC(c2ccccc2)CC1` (relative stereo) [Compound 11c], the “Pharmacological activity in mice” value in experiment [2] (10 umol/Kg ip), in experiment [2] (20 umol/Kg ip) and in experiment [2] (setting [5]) was “NR” each time. For the same molecule, the “hind leg paralysis in mice” value in experiment [2] (footnote c, .60 umol/Kg (so in the source) ip) is listed as “Hind legs remained visibly paralyzed”. Besides, the “duration of visible hind leg paralysis” value in experiment [2] (postinjection, footnote c, .60 umol/Kg (so in the source) ip) is reported as “at least 15 min”. For the molecule `OC(Cc1ccc(Br)cc1)CN1CCC(c2ccccc2)CC1` (racemic) [(dl)-4c], the increase in potency with vesamicol receptor [3] (4c relative to 4a) is listed as 59 times. For the molecule `O=C(c1ccccc1I)N1CC[C@H](O)[C@@H](N2CCC(c3ccccc3)CC2)C1` (relative stereo) [Compound 10b, 4-Hydroxy-1-(2-iodobenzoyl)-3-(4-phenylpiperidinyl)piperidine], the figures for the “Pharmacological activity in mice” value in experiment [2] (2.5 umol/Kg ip) and in experiment [2] (20 umol/Kg ip) were “NR” and “+”, respectively.

For the molecule `O=C(c1ccccc1)N1CC[C@@H](O)[C@H](N2CCC(c3ccccc3)CC2)C1` [(-)-10a], the concentration for half-maximal inhibition (IC50) at vesamicol receptor [1] (inhibition of [^3 H]vesamicol binding, hydrochlorides, ±1 standard deviation) came out at 100 ± 30 nM. Also, in experiment [2] (5.0 umol/Kg ip), the “Pharmacological activity in mice” value is on record as “+”. `O[C@H]1CN(Cc2ccc(Br)cc2)CC[C@@H]1N1CCC(c2ccccc2)CC1` (relative stereo) [Compound 11d]: the “Pharmacological activity in mice” value in experiment [2] (10 umol/Kg ip) was “NR”. Take `O[C@H]1CNCC[C@@H]1N1CCC(c2ccccc2)CC1` (relative stereo) [Compound 5, 3-Hydroxy-4-(4-phenylpiperidinyl)piperidine]: in experiment [2] (setting [4]), the “Pharmacological activity in mice” value is given as “NR”. In the case of `O=[N+]([O-])c1ccc(N2CC[C@H](O)[C@@H](N3CCC(c4ccccc4)CC3)C2)cc1` (relative stereo) [Compound 12l, 4-Hydroxy-1-(4-nitrophenyl)-3-(4-phenylpiperidinyl)piperidine], in experiment [2] (.15 umol/Kg (so in the source) ip), the “Pharmacological activity in mice” value was “NR”. Take `O[C@H]1CCN(Cc2ccccc2)C[C@@H]1N1CCC(c2ccccc2)CC1` (relative stereo) [Compound 12a]: the “in vitro potency (in words)” value on vesamicol receptor [1] is on record as “increased potency”. Besides, the “Pharmacological activity in mice” value in experiment [2] (10 umol/Kg ip) is listed as “LD”.

With `O[C@H]1CCN(Cc2ccc(Br)cc2)C[C@@H]1N1CCC(c2ccccc2)CC1` (relative stereo) [Compound 12g, 1-(4-Bromobenzyl)-4-hydroxy-3-(4-phenylpiperidinyl)piperidine], the entries for the “Pharmacological activity in mice” value in experiment [2] (10 umol/Kg ip) and in experiment [2] (20 umol/Kg ip) were “+” and “LD”, respectively.

As for `O[C@H]1CCN(Cc2cccc(I)c2)C[C@@H]1N1CCC(c2ccccc2)CC1` (relative stereo) [Compound 12h], the “Pharmacological activity in mice” value was “NR” in experiment [2] (1.3 umol/Kg ip) and “LD” in experiment [2] (5.0 umol/Kg ip). `O[C@H]1CCNC[C@@H]1N1CCC(c2ccccc2)CC1` (relative stereo) [Compound 6]: the “Pharmacological activity in mice” value in experiment [2] (setting [4]) is recorded as “NR”. As for `O[C@H]1CCN(Cc2cccc(Br)c2)C[C@@H]1N1CCC(c2ccccc2)CC1` (relative stereo) [Compound 12f], the “Pharmacological activity in mice” value was “NR” in experiment [2] (5.0 umol/Kg ip) and “LD” in experiment [2] (10 umol/Kg ip).

For the molecule `O[C@H]1CN(Cc2ccccc2Br)CC[C@@H]1N1CCC(c2ccccc2)CC1` (relative stereo) [Compound 11b], on vesamicol receptor [1], the “in vitro potency (in words)” value is “slight but noticeable increase in activity”. For the same molecule, the “Pharmacological activity in mice” value in experiment [2] (5.0 umol/Kg ip) is given as “NR”; in experiment [2] (10 umol/Kg ip), “+”. `CC(C)(C)C1CC[C@@H](O)[C@H](N2CCC(c3ccccc3)CC2)C1` (stereo partly shown) [Compound 3]: the “vesamicol receptor affinity (in words)” value with vesamicol receptor [3] (earlier studies) is on record as “potent ligands”.

Take `O=C(c1ccccc1)N1CC[C@H](N2CCC(c3ccccc3)CC2)[C@@H](O)C1` (relative stereo) [Compound 9a, 1-Benzoyl-3-hydroxy-4-(4-phenylpiperidinyl)piperidine]: the “Pharmacological activity in mice” value in experiment [2] (setting [5]) was “LD”. Regarding `O=C(c1ccccc1)N1CC[C@H](O)[C@@H](N2CCC(c3ccccc3)CC2)C1` (relative stereo) [Compound 10a, 1-Benzoyl-4-hydroxy-3-(4-phenylpiperidinyl)piperidine], the “Pharmacological activity in mice” value in experiment [2] (setting [4]) is on record as “LD”.
